Experiments:
[1] = tested on: diaphysis and metaphysis tissues of rat femur; test: Calcium level in bone tissues in a bone tissue culture system; conditions: for Calcium level in bone tissues, diaphysis part / Calcium level in bone tissues, metaphysis part / Change of calcium levels in bone tissues compared to the control group (in words) / Change of calcium levels in bone tissues (in words): 48 h culture, β-cryptoxanthin 10^−9 M; for Calcium level in bone tissues, diaphysis part / Calcium level in bone tissues, metaphysis part: mean ± SD, 5 rats; for Change of calcium levels in bone tissues compared to the control group (in words): both diaphysis and metaphysis; for Change of calcium level in bone tissues (in words): higher concentration of 10^−5 M
Protocol: Rats (Wistar male rats; 4 weeks old, body weight 85-90 g; purchased from Japan SLC Ltd., and fed with solid Oriental yeast (MF)) were sacrificed under mild ether anesthesia. Muscle tissues around femur were removed completely, divided into diaphysis (cortical bone) and metaphysis (cancellous bone) tissues of femur, and then the bone marrow cells were washed and removed in a cold 0.25 M sucrose solution. The bone tissue pieces were cultured in a Dulbecco's modified Eagle's culture medium (serum-free, containing 50 units/ml penicillin and 50 μg/ml spretomycin, supplemented with 45 mg/ml glucose), in an CO2 incubator aseptically for 48 hours at 37° C. […] Bone tissues were put into a culture dish (with a diameter of 35 mm, made of plastic) added with 2.0 ml of the above mentioned culture solution, and cultured. After being cultured, bone tissues were washed well in a cold 0.25 M sucrose solution, dried at 100° C. for 5 hours, and weighed. Dried bone tissues were put into a test tube (15 ml), to which 2.0 ml of concentrated nitric acid was added, and the resultant was heated and degraded at 100° C. for 16 hours. After degradation, solution amount was measured. A specific amount thereof was diluted with purified distilled water, and calcium was determined by colorimetry (kit for measuring calcium, Wako Pure Chemical Industries). Calcium levels in bone tissues are indicated as mg per 1 g of dried weight of cultured bone tissues. In the above experiment, bone tissues obtained from one rat were put in one culture dish, and 5 culture dishes were used for 5 rats. 5 dishes were used for each of the control, β-cryptoxanthin alone group, zinc alone group, and the β-cryptoxanthin and zinc-combined group. […] A critical value of less than 5% was determined as having a significant difference.
In order to investigate the effect on calcium levels in bone tissues when β-cryptoxanthin and zinc, or genistein and menaquinone-7 are supplied in the bone tissue culture system, femur diaphysis and metaphysis tissues were cultured for 48 hours in a culture solution, in the same manner as in Example 1, and the calcium level in bone tissues was measured, compared and evaluated.

[2] = tested on: femur diaphysis and metaphysis tissues; test: DNA level in bone tissues by oral administration; assay type: in vivo, rat; conditions: rats, β-cryptoxanthin 5 μg/100 g body weight, zinc 0.1 mg/100 g body weight; for Change of DNA level in diaphysis (in words) / Change of DNA level in metaphysis tissues (in words): oral 7 days; for DNA level in bone tissues, diaphysis part / DNA level in bone tissues, metaphysis part: oral once a day for 7 days
Protocol: (§1) DNA level was determined as an index of cell count in bone tissues. […] After osmosis at 4° C. for 24 hours, the liquid mixture was centrifuged. The supernatant was taken as a sample and determined by a method of Ceriotti et al. (J. Biol. Chem., 241; 34-77, 1951). Namely, 1 ml of concentrated hydrochloric acid and 1 ml of 0.04% indole solution were added to 2 ml of the sample and then the resultant mixture was heated to 100° C. in boiling water. After quenching followed by an extraction with 4 ml of chloroform, the chloroform layer was taken to determine bone DNA level with a spectrophotometer (490 nm).
(§2) 24 hours after the final administration, femur was extracted, and the change in calcium levels in diaphysis and metaphysis tissues was examined with the method of Example 1.
The change of DNA level in diaphysis and metaphysis tissues which were extracted in the same manner as in Example 5 was examined with the method of Example 4.

[3] = tested on: alkaline phosphatase in bone tissues (femur diaphysis and metaphysis); test: Alkaline phosphatase activity in bone tissues in a bone tissue culture system; assay type: cell-based, rat; conditions: 48 h culture, β-cryptoxanthin 10^−9 M, zinc 10^−6 M; for Alkaline phosphatase activity in bone tissues, diaphysis part / Alkaline phosphatase activity in bone tissues, metaphysis part: mean ± SD, 5 rats; for Change of alkaline phosphatase activity in bone tissues compared to the control group (in words): diaphysis and metaphysis
Protocol: (§3) After degradation, solution amount was measured.
(§4) The expression level of alkaline phosphatase, which is the most important enzyme for promoting bone calcification, was examined. […] The resultant liquid was centrifuged. The supernatant, as an enzyme solution, was determined by a method of Walter and Schutt (in Method of Enzymatic Analysis, Vol. 1-2, p. 856, Academic Press, New York, 1965). Namely, this method was carried out as follows: p-nitrophenylphosphoric acid was used as a substrate; 0.05 ml of the enzyme solution was added to 2 ml of diethanolamine buffer (pH 9.8). After the incubation at 37° C. for 30 minutes, 10 ml of 0.05 N NaOH was added to the mixture.

[4] = tested on: alkaline phosphatase in bone tissues (femur diaphysis and metaphysis); test: Alkaline phosphatase activity in bone tissues by oral administration; assay type: in vivo, rat; conditions: rats, β-cryptoxanthin 5 μg/100 g body weight, zinc 0.1 mg/100 g body weight; for Change of alkaline phosphatase activity in diaphysis and metaphysis tissues (in words): oral 7 days; for Alkaline phosphatase activity in bone tissues, diaphysis part / Alkaline phosphatase activity in bone tissues, metaphysis part: oral once a day for 7 days
Protocol: as §4, with “mixture. The absorbance (405 nm) was determined with a spectrophotometer to examine bone alkaline phosphatase activity of a therapeutic agent for bones and of a compound known to be effective for bones.” for “mixture.”
as §2
The change of alkaline phosphatase activity in diaphysis and metaphysis tissues which were extracted in the same manner as in Example 5 was examined with the method of Example 3.

[5] = tested on: femur diaphysis and metaphysis tissues; test: Calcium level in bone tissues by oral administration; assay type: in vivo, rat; conditions: rats, β-cryptoxanthin 5 μg/100 g body weight, zinc 0.1 mg/100 g body weight; for Change of calcium level in diaphysis (in words) / Change of calcium level in metaphysis (in words): oral 7 days; for Calcium level in bone tissues, diaphysis part / Calcium level in bone tissues, metaphysis part: oral once a day for 7 days, femur 24 h after final administration
Protocol: as §3, §2

[6] = tested on: diaphysis and metaphysis tissues of rat femur; test: DNA level in bone tissues in a bone tissue culture system; assay type: cell-based; conditions: 48 h culture, β-cryptoxanthin 10^−9 M, zinc 10^−6 M; for DNA level in bone tissues, diaphysis part / DNA level in bone tissues, metaphysis part: mean ± SD, 5 rats; for Change of DNA level in bone tissues compared to the control group (in words): diaphysis and metaphysis
Protocol: as §3, §1

[7] = tested on: diaphysis and metaphysis tissues of a femur; conditions: cited from earlier work
bone protein synthesis = conditions: non-patent document 4; cited from earlier work
[8] = Example 2, zinc, genistein, menaquinone-7 each 10^−6 M

Compound | Calcium level in bone tissues, diaphysis part ([1]; Example 1, zinc 10^−6 M) [mg/g bone dry weight] | Calcium level in bone tissues, metaphysis part ([1]; Example 1, zinc 10^−6 M) [mg/g bone dry weight] | Change of calcium levels in bone tissues compared to the control group (in words) ([1]; Example 1, zinc 10^−6 M) | Change of calcium levels in bone tissues (in words) [1, 8] | Calcium level in bone tissues, diaphysis part [1, 8] [mg/g bone dry weight] | Calcium level in bone tissues, metaphysis part [1, 8] [mg/g bone dry weight] | Change of DNA level in diaphysis (in words) [2] | Change of DNA level in metaphysis tissues (in words) [2] | DNA level in bone tissues, diaphysis part [2] [mg/g bone wet weight] | DNA level in bone tissues, metaphysis part [2] [mg/g bone wet weight] | Alkaline phosphatase activity in bone tissues, diaphysis part [3] [μmol/min/mg protein] | Alkaline phosphatase activity in bone tissues, metaphysis part [3] [μmol/min/mg protein] | Change of alkaline phosphatase activity in bone tissues compared to the control group (in words) [3] | Change of alkaline phosphatase activity in diaphysis and metaphysis tissues (in words) [4] | Alkaline phosphatase activity in bone tissues, diaphysis part [4] [μmol/min/mg protein] | Alkaline phosphatase activity in bone tissues, metaphysis part [4] [μmol/min/mg protein] | Change of calcium level in diaphysis (in words) [5] | Change of calcium level in metaphysis (in words) [5] | Calcium level in bone tissues, diaphysis part [5] [mg/g dry mass] | Calcium level in bone tissues, metaphysis part [5] [mg/g dry mass] | further results
CC1=C(/C=C/C(C)=C/C=C/C(C)=C/C=C/C=C(C)/C=C/C=C(C)/C=C/C2=C(C)C[C@@H](O)CC2(C)C)C(C)(C)CCC1 [β-cryptoxanthin] | 221.5 ± 3.95 | 189.5 ± 2.39 | did not change significantly | did not increase significantly | 221.5 ± 3.45 | 189.5 ± 3.44 | did not induce a significant change | significant increase | 1.980 ± 0.251 | 4.102 ± 0.055 | 1.010 ± 0.078 | 1.122 ± 0.078 | did not change significantly | did not induce a significant change | 1.703 ± 0.056 | 1.159 ± 0.048 | did not induce a significant change | increased significantly | 233.6 ± 6.8 | 190.1 ± 3.4 | DNA level in bone tissues, diaphysis part [6]: 1.358 ± 0.089 mg/g bone wet weight; DNA level in bone tissues, metaphysis part [6]: 3.141 ± 0.078 mg/g bone wet weight; Change of DNA level in bone tissues compared to the control group (in words) [6]: did not change significantly; Effective concentration for promoting osteogenesis and increasing bone calcium level ([7]; 48-hour culture system of a bone tissue culture system, earlier report of the inventors): 10^−8-10^−6 M; Concentration at which osteogenesis is promoted and bone calcium increased ([7]; 48 h culture in a bone tissue culture system, patent document 10, non-patent document 2): 10^−1 to 10^−6; Calcium level, bone calcification accelerating enzyme and DNA level in bone tissues (in words) ([7]; femur diaphysis and metaphysis tissues cultured in medium containing β-cryptoxanthin, earlier report of the inventors): significant increase
O=c1c(-c2ccc(O)cc2)coc2cc(O)cc(O)c12 [genistein, reference compound] |  |  |  | did not increase significantly | 211.0 ± 7.93 | 189.3 ± 6.40 |  |  |  |  |  |  |  |  |  |  |  |  |  |  | Change of calcium level in bone tissues (in words) [1]: increasing significantly
CC(C)=CCC/C(C)=C/CC/C(C)=C/CC/C(C)=C/CC/C(C)=C/CC/C(C)=C/CC/C(C)=C/CC1=C(C)C(=O)c2ccccc2C1=O [menaquinone-7, reference compound] |  |  |  | did not increase significantly | 219.8 ± 4.20 | 184.9 ± 2.70 |  |  |  |  |  |  |  |  |  |  |  |  |  |  | Change of calcium level in bone tissues (in words) [1]: increasing significantly
O=S(=O)([O-])[O-].[Zn+2] [zinc, zinc sulfate] | 215.5 ± 2.01 | 185.6 ± 1.56 | did not change significantly | did not increase significantly | 224.3 ± 2.90 | 190.2 ± 2.53 | did not induce a significant change | did not induce a significant change | 1.805 ± 0.154 | 3.278 ± 0.103 | 1.019 ± 0.061 | 1.190 ± 0.079 | did not change significantly | did not induce a significant change | 1.725 ± 0.038 | 1.170 ± 0.033 | did not induce a significant change | did not induce a significant change | 227.9 ± 4.3 | 178.6 ± 4.0 | Concentration at which synthesis of bone protein is promoted (bone protein synthesis): ≥ 10^−4 M; DNA level in bone tissues, diaphysis part [6]: 1.471 ± 0.052 mg/g bone wet weight; DNA level in bone tissues, metaphysis part [6]: 3.025 ± 0.271 mg/g bone wet weight; Change of DNA level in bone tissues compared to the control group (in words) [6]: did not change significantly

From patent publication US20080113038A1, “Composition For Promoting Osteogenesis And Increasing Bone Mineral Content” (priority 2004, published 2008)
